According to BigSolDB 2.1:

What does the source list for `C#C[C@]1(O)CC[C@H]2[C@@H]3CCC4=CC(=O)CC[C@@H]4[C@H]3C(=C)C[C@@]21CC`?
solubility (mole fraction) (in DMF, 278.15 K): 0.0797; solubility (mole fraction) (in DMF, 283.15 K): 0.084; solubility (mole fraction) (in DMF, 288.15 K): 0.0882; solubility (mole fraction) (in DMF, 293.15 K): 0.093; solubility (mole fraction) (in DMF, 298.15 K): 0.0975; solubility (mole fraction) (in DMF, 303.15 K): 0.102; solubility (mole fraction) (in DMF, 308.15 K): 0.107; solubility (mole fraction) (in DMF, 313.15 K): 0.112; solubility (mole fraction) (in DMF, 318.15 K): 0.117; solubility (mole fraction) (in DMF, 323.15 K): 0.121; solubility (mole fraction) (in isopropanol, 278.15 K): 0.00597; solubility (mole fraction) (in isopropanol, 283.15 K): 0.00697; solubility (mole fraction) (in isopropanol, 288.15 K): 0.00803; solubility (mole fraction) (in isopropanol, 293.15 K): 0.00923; solubility (mole fraction) (in isopropanol, 298.15 K): 0.0106; solubility (mole fraction) (in isopropanol, 303.15 K): 0.0121; solubility (mole fraction) (in isopropanol, 308.15 K): 0.0137; solubility (mole fraction) (in isopropanol, 313.15 K): 0.0156; solubility (mole fraction) (in isopropanol, 318.15 K): 0.0174; solubility (mole fraction) (in isopropanol, 323.15 K): 0.0195; solubility (mole fraction) (in n-propanol, 278.15 K): 0.00504; solubility (mole fraction) (in n-propanol, 283.15 K): 0.00579; solubility (mole fraction) (in n-propanol, 288.15 K): 0.00677; solubility (mole fraction) (in n-propanol, 293.15 K): 0.00783; solubility (mole fraction) (in n-propanol, 298.15 K): 0.00901; solubility (mole fraction) (in n-propanol, 303.15 K): 0.0103; solubility (mole fraction) (in n-propanol, 308.15 K): 0.0117; solubility (mole fraction) (in n-propanol, 313.15 K): 0.0132; solubility (mole fraction) (in n-propanol, 318.15 K): 0.015; solubility (mole fraction) (in n-propanol, 323.15 K): 0.0168; solubility (mole fraction) (in water, 278.15 K): 1.48e-05; solubility (mole fraction) (in water, 283.15 K): 1.8e-05; solubility (mole fraction) (in water, 288.15 K): 2.15e-05; solubility (mole fraction) (in water, 293.15 K): 2.56e-05; solubility (mole fraction) (in water, 298.15 K): 3.11e-05; solubility (mole fraction) (in water, 303.15 K): 3.69e-05; solubility (mole fraction) (in water, 308.15 K): 4.3e-05; solubility (mole fraction) (in water, 313.15 K): 5.03e-05; solubility (mole fraction) (in water, 318.15 K): 5.85e-05; solubility (mole fraction) (in water, 323.15 K): 6.78e-05
